Data taken from patent US20260224549A1, “COMPOUNDS, COMPOSITIONS, AND METHODS FOR TREATING, AMELIORATING, AND/OR PREVENTING PAIN” (priority 2023, published 2026).
Read-outs that look alike come from different tables or passages of the source.

Columns and labels:
rat = test system: rat
Text: The chosen dose can be higher, as long as within the pharmacological range.

[1] = Static vapor sorption studies; type: physicochemical; settings: Panel: Static humidity; 7 experiments
Text: Static Vapor Sorption Studies
Static vapor sorption studies were done in hermetic humidity chambers using saturated salts, or environmental humidity chambers to control the temperature and humidity. Data collected during dynamic vapor sorption studies often are not at thermodynamic equilibrium. To gain a better understanding of the water uptake and the critical humidity level of the API, samples of the starting material (i.e., Form A) were monitored in static humidity chambers to allow the sample to equilibrate with atmospheric moisture.
In these studies, water vapor sorption was determined gravimetrically by storing samples in open aluminum dishes. Compound I diphosphate salt lot was used for this study. Samples were stored at 7 different humidity levels at ambient temperature (Table 19). Approximately 50 mg of Form A was staged at each humidity condition. The samples were weighed before placing them in the chamber and then re-weighed after 3 weeks. After re-weighing, the samples were immediately analyzed by XRD to determine whether a change in form had occurred.
The sample stored at 11% RH was an outlier and was therefore omitted from the final isotherm plot. The static isotherm plot is roughly consistent with the DVS isotherm plot (FIG. 12F) with a large moisture uptake at around 40% RH and a maximum uptake between 4 and 5 weight percent.

human μ-opioid receptor = settings: G-protein signaling over β-arrestin signaling
Description: Applying ^19F NMR, one can measure the quantity of G-protein signaling conformation, as well as that of β-arrestin signaling conformation, of the μ-opioid receptor as induced by an agonist.

[2] = remark: listed apart in the source
Description: The screen was performed using solvent recrystallizations using different conditions, as well as non-competitive slurry experiments, to manipulate the solid-state form of the test material. Samples generated during the study were characterized using differential scanning calorimetry (DSC), thermogravimetric analysis (TGA), powder X-ray diffraction (XRD), and dynamic vapor sorption (DVS).
To perform the solvent-based portion of the polymorph screen, the test material was recrystallized using various solvents under approximately 78 different crystal growth conditions. The scale of the recrystallization experiments was approximately 1 to 20 mL. The method of changing the crystal growth conditions was by using single and binary arrays of solvent mixtures. The saturation temperature, growth temperature, and evaporation rate were also varied to create additional differences in crystal growth conditions.
Saturated solutions were prepared by agitating excess test material in contact with the various solvent systems at the saturation temperature. The mother liquor was separated from the residual solids by filtration if solids remained in the solution. The mother liquor was then heated above the saturation temperature to dissolve any remaining solids. The temperature of each solution was then adjusted to the growth temperature and a controlled nitrogen shear flow was introduced to begin solvent evaporation.
In addition to the solvent recrystallization experiments, non-competitive slurry experiments were performed to search for new solid-state forms. These experiments rely on solubility differences of different polymorphic form, if the compound exists in different polymorphic forms. As such, only polymorphs having a lower solubility (i.e., increased stability) than the original crystalline form can result from a non-competitive slurry experiment.
Essentially, when a solid is mixed with solvent to create slurry, a saturated solution is formed. The solution is saturated with respect to the polymorphic form dissolved.
The slurry experiments described herein were performed by exposing excess supplied material (i.e., Form A) to solvents and agitating the resulting suspensions for one week at ambient temperature. The solids were filtered and analyzed by XRD to determine the resulting form(s).
Solids generated from the solvent based recrystallization panels and otherwise provided samples were analyzed by powder XRD. To mitigate preferred grain effects, a two dimensional detection system was used to collect all the XRD screening data. The two dimensional detector integrates along the concentric Debye cones which helps reduce pattern variation. If bright spots appear in the conical rings, it indicates strong preferred grain effects that can lead to considerable variability in the observed diffraction patterns including changes in peak intensities.
The analysis entailed cluster analysis and multivariate statistics to group together any patterns that were determined to be statistically the same.
In the dendrogram, each pair of diffraction patterns is connected via a single node, which corresponds to a dissimilarity value (between 0 and 1) on the y-axis. The higher the connecting node is, the more dissimilar the two patterns are. A threshold dissimilarity value (~0.4 in this case) is used to group similar patterns into clusters, which should correspond to different solid state forms. The cluster plot is a 3D representation of the same analysis.

[3] = Panel: Anti-solvent addition, 15 experiments
[4] = Panel: Cooled to −20° C., single solvent, 12 experiments
[5] = Panel: Fast evaporation, binary solvent, 13 experiments
[6] = Panel: Fast evaporation, single solvent, 65° C., 14 experiments
[7] = Panel: Fast evaporation, single solvent, ambient, 24 experiments
[8] = Panel: Non-competitive slurries, 15 experiments
[9] = Total of all panels, 100 experiments

## CN(C)C[C@H]1CN(CCc2ccsc2)CC[C@]1(O)c1cccc(C(N)=O)c1 [Compound I, 3-(3S, 4R)-3-((dimethylamino)methyl)-4-hydroxy-1-(2-(thiophen-3-yl)ethyl)piperidin-4-yl-benzamide]
Single dose 20-400 mg
  opiate-associated effects: no system opiate-associated effects noted
Single dose ranging from 20 mg up to 400 mg, healthy subjects
  tolerability: well-tolerated
rat
  NOAEL HED for 50 kg subject: 485 mg
[1]
  No. of experiments giving Amorphous Form: 0
  No. of experiments giving Form A: 7
  No. of experiments with No solid recovered: 0
Human μ-opioid receptor
  signaling pathway selectivity: extremely cell-signaling-pathway-selective μ-opioid agonist
[2]; [3]
  No. of experiments giving Amorphous Form: 0
  No. of experiments giving Form A: 9
  No. of experiments with No solid recovered: 6
[2]; [4]
  No. of experiments giving Amorphous Form: 0
  No. of experiments giving Form A: 0
  No. of experiments with No solid recovered: 12
[2]; [5]
  No. of experiments giving Amorphous Form: 1
  No. of experiments giving Form A: 9
  No. of experiments with No solid recovered: 3
[2]; [6]
  No. of experiments giving Amorphous Form: 2
  No. of experiments giving Form A: 4
  No. of experiments with No solid recovered: 8
[2]; [7]
  No. of experiments giving Amorphous Form: 6
  No. of experiments giving Form A: 1
  No. of experiments with No solid recovered: 17
[2]; [8]
  No. of experiments giving Amorphous Form: 0
  No. of experiments giving Form A: 13
  No. of experiments with No solid recovered: 2
[2]; [9]
  No. of experiments giving Amorphous Form: 9
  No. of experiments giving Form A: 43
  No. of experiments with No solid recovered: 48
[2]; all panels, 100 experiments
  % of Total experiments giving Amorphous Form: 9%
  % of Total experiments giving Form A: 43%
  % of Total experiments with No solid recovered: 48%
